For test [1], the target named is T1, recombinant human CB1 (Homo sapiens, UniProt P21554).
T1 construct: expressed in transfected cells; host or cells: Sf9 cells
The test can be described thus: biochemical. It is filed as binding.

Test [2] deals with T2, recombinant human CB2 (Homo sapiens, UniProt P34972).
T2 construct: expressed in transfected cells; host or cells: Sf9 cells
Put plainly: Competitive receptor binding against tritium labelled CP55,940, CB2.

The subject of test [3] is Experimental Autoimmune Encephalomyelitis. Put plainly: Mouse model for Experimental Autoimmune Encephalomyelitis. It is filed as in vivo. The conditions noted are these: SJL mice, day 0-20. The method, then:
The effect of purified THC-acid and unheated cannabis extracts were tested in vivo in a mouse model for Experimental Autoimmune Encephalomyelitis.
Between day 0 and day 20 after onset of the disease the mice were treated daily with a specified oral dose of THC-acid or unheated extract according to the following scheme:
Group 1: vehicle (0.2 mL olive oil/day);
Group 2: 1 mg purified THC-acid in 0.2 mL olive oil/day;
Group 3: unheated cannabis extract in 0.2 mL olive oil containing 1 mg THC-acid/day.
1: mild perivascular accumulation
2: mild perivascular accumulation, multi-focal
3: perivascular accumulation, multiple cell layers, multi-focal.

The subject of test [4] is mRNA coding for interleukin-10 (IL-10). The test can be described thus: IL-10 mRNA level (RT-PCR) in PHA-stimulated PBMC. It is filed as cell-based. The following applies: PBMC stimulated by PHA, incubation 4 days; relative to β-actine.
The subject of test [5] is mRNA coding for TNF-alpha. The test can be described thus: TNF-alpha mRNA level (RT-PCR) in PHA-stimulated PBMC. It is filed as cell-based. The conditions noted are these: PBMC stimulated by PHA, incubation 4 days; relative to β-actine.

Each structure is given as a SMILES string. Read-outs that look alike come from different tables or passages of the source.

T2 sequence (P34972 whole entry): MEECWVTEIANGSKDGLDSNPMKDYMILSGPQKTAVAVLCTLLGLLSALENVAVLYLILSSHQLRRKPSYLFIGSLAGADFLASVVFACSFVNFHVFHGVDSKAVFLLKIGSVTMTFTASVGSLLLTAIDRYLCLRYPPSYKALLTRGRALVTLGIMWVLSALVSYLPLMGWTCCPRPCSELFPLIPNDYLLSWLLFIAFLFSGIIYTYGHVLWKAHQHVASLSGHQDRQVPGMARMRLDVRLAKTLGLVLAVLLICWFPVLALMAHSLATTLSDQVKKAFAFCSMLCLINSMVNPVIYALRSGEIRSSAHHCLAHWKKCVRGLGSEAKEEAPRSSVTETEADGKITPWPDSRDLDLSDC
T1 sequence (P21554 whole entry): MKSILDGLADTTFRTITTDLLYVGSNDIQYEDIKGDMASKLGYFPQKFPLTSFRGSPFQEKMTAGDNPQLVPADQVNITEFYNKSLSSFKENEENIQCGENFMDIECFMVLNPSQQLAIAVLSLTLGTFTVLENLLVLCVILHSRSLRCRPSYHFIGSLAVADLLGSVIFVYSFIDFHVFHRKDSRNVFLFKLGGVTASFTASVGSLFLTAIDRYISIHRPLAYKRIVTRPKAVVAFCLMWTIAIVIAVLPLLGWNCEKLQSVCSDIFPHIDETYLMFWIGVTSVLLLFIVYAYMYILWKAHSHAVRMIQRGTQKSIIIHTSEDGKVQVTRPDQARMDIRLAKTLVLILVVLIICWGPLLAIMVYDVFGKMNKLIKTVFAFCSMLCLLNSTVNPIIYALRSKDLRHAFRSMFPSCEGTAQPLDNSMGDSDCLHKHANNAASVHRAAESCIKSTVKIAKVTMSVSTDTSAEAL

What is called Kd is the free concentration of one partner at which half of the binding sites on the other are occupied at equilibrium, for simple one-to-one binding. With `CCCCCc1cc(O)c2c(c1)OC(C)(C)c1ccc(C)cc1-2` [CBN*, cannabinol, reference compound], the Kd in test [1] is 0.036 µM; in test [2], 0.017 µM.
Take `CCCCCc1cc2c(c(O)c1C(=O)O)C1C=C(C)CCC1C(C)(C)O2` (centres unmarked) [THC-A, Δ^9-tetrahydrocannabinolic acid]: the “number of inflammatory cells in the brain stem compared to vehicle” value in test [3] (1 mg THC-acid/day oral in olive oil, sacrificed after 42 days) is reported as “reduced the number of inflammatory cells in the brain stem significantly”. Moreover, in test [3] (1 mg THC-acid/day oral, FIG. 4), the clinical score result is “improved the clinical score significantly”. Moreover, the Kd is more than 1 µM in test [1] (purified components, Sf9 cells, read-out: Kd CB1) and more than 1 µM in test [2] (purified components, Sf9 cells, read-out: Kd CB2). Further, the “level of the anti-inflammatory cytokine IL-10 (mRNA)” value in test [4] was “increase”. For the same compound, the “level of the pro-inflammatory cytokine TNFα (mRNA)” value in test [5] is recorded as “decrease”.

These data come from US7807711B2, “Medicinal acidic cannabinoids” (priority 2004, dated 2010).
